From patent publication US20110184188A1, “Insecticidal Benzenedicarboxamide Derivative” (priority 2008, published 2011)

Assay: logP(acid) by reverse phase (C18) chromatography at pH 2.3
Format: physicochemical
[1] = reverse phase (C18) chromatography at pH 2.3
[2] = reverse phase (C18) chromatography, pH 2.3

Row | Structure (SMILES) | logP (acid) [1] | logP (acid) [2]
1 | Cc1cc(Cn2nc(C(F)(F)F)cc2C(F)(F)F)ccc1NC(=O)c1c(Cl)ccc(Cl)c1C(=O)N[C@@H](C)CS(C)(=O)=O [11-23] | logP (acid) 3.40 | 
2 | Cc1cc(Cn2nc(C(F)(F)C(F)(F)F)nc2C(F)(F)F)ccc1NC(=O)c1c(Cl)ccc(Cl)c1C(=O)N[C@@H](C)CS(C)(=O)=O [11-29] | logP (acid) 3.50 | 
3 | Cc1cc(Cn2nc(C(F)(F)C(F)(F)F)nc2C(F)(F)F)ccc1NC(=O)c1c(Br)ccc(Cl)c1C(=O)N[C@@H](C)CS(C)(=O)=O [11-32] | logP (acid) 3.47 | 
4 | CNC(=O)c1cc(Cl)cc(Cl)c1C(=O)Nc1ccc(Cn2nc(C(F)(F)F)cc2C(F)(F)F)cc1C [12-1] | logP (acid) 3.69 | 
5 | CNC(=O)c1cc(Cl)cc(Cl)c1C(=O)Nc1ccc(Cn2nc(C(F)(F)F)nc2C(F)(F)F)cc1C [12-4] | logP (acid) 3.39 | 
6 | CSC[C@H](C)NC(=O)c1c(Cl)cccc1C(=O)Nc1ccc(Cn2cc(C(F)(F)C(F)(F)F)c(C(F)(F)C(F)(F)F)n2)nc1C [13-50] | 4.27 | 
7 | Cc1nc(Cn2nc(C(F)(F)C(F)(F)F)cc2C(F)(F)F)ccc1NC(=O)c1cccc(Cl)c1C(=O)N[C@@H](C)C[S+](C)[O-] (stereo partly shown) [13-70] | 2.86 | 
8 | Cc1nc(Cn2cc(C(F)(F)C(F)(F)F)c(C(F)(F)C(F)(F)F)n2)ccc1NC(=O)c1cccc(Cl)c1C(=O)N[C@@H](C)CS(C)(=O)=O [13-110] | logP (acid) 3.46 | 
9 | CSC[C@H](C)NC(=O)c1c(Br)cccc1C(=O)Nc1ccc(Cn2cc(C(F)(F)C(F)(F)F)c(C(F)(F)C(F)(F)F)n2)nc1C [13-134] | logP (acid) 4.35 | 
10 | CSC[C@H](C)NC(=O)c1c(Br)cccc1C(=O)Nc1ccc(Cn2nc(C(F)(F)C(F)(F)F)cc2C(F)(F)F)nc1C [13-135] | logP (acid) 4.30 | 
11 | Cc1nc(Cn2nc(C(F)(F)C(F)(F)C(F)(F)F)cc2C(F)(F)F)ccc1NC(=O)c1cccc(Br)c1C(=O)N[C@@H](C)C[S+](C)[O-] (stereo partly shown) [13-136] | logP (acid) 3.08 | 
12 | Cc1nc(Cn2cc(C(F)(F)C(F)(F)F)c(C(F)(F)C(F)(F)F)n2)ccc1NC(=O)c1cccc(Br)c1C(=O)N[C@@H](C)C[S+](C)[O-] (stereo partly shown) [13-138] | logP (acid) 3.03 | 
13 | Cc1nc(Cn2nc(C(F)(F)C(F)(F)C(F)(F)F)cc2C(F)(F)F)ccc1NC(=O)c1cccc(Br)c1C(=O)N[C@@H](C)CS(C)(=O)=O [13-139] | logP (acid) 3.56 | 
14 | Cc1nc(Cn2cc(C(F)(F)C(F)(F)F)c(C(F)(F)C(F)(F)F)n2)ccc1NC(=O)c1cccc(Br)c1C(=O)N[C@@H](C)CS(C)(=O)=O [13-141] | logP (acid) 3.52 | 
15 | CSC[C@H](C)NC(=O)c1c(I)cccc1C(=O)Nc1ccc(Cn2cc(C(F)(F)C(F)(F)F)c(C(F)(F)C(F)(F)F)n2)nc1C [13-156] | logP (acid) 4.46 | 
16 | CSC[C@H](C)NC(=O)c1c(I)cccc1C(=O)Nc1ccc(Cn2nc(C(F)(F)C(F)(F)F)cc2C(F)(F)F)nc1C [13-157] | logP (acid) 4.39 | 
17 | CSC[C@H](C)NC(=O)c1c(Cl)cccc1C(=O)Nc1cnc(Cn2nc(C(F)(F)F)cc2C(F)(F)F)cc1C [13-175] | logP (acid) 3.52 | 
18 | CSC[C@H](C)NC(=O)c1c(Br)cccc1C(=O)Nc1cnc(Cn2nc(C(F)(F)F)cc2C(F)(F)F)cc1C [13-178] | logP (acid) 3.59 | 
19 | CSC[C@H](C)NC(=O)c1c(I)cccc1C(=O)Nc1cnc(Cn2nc(C(F)(F)F)cc2C(F)(F)F)cc1C [13-181] | logP (acid) 3.67 | 
20 | Cc1nc(Cn2nc(C(F)(F)C(F)(F)F)cc2C(F)(F)F)ccc1NC(=O)c1cccc(Cl)c1C(=O)N[C@@H](C)CS(C)(=O)=O [13-186] | logP (acid) 3.12 | 
21 | Cc1nc(Cn2nc(C(F)(F)C(F)(F)F)cc2C(F)(F)F)ccc1NC(=O)c1cccc(Br)c1C(=O)N[C@@H](C)CS(C)(=O)=O [13-187] | logP (acid) 3.19 | 
22 | Cc1nc(Cn2nc(C(F)(F)C(F)(F)F)cc2C(F)(F)F)ccc1NC(=O)c1cccc(I)c1C(=O)N[C@@H](C)CS(C)(=O)=O [13-189] | logP (acid) 3.27 | 
23 | Cc1cc(Cn2nc(C(F)(F)F)cc2C(F)(F)F)ccc1NC(=O)c1cccc(Cl)c1C(=O)NC(C)CN(C)C (stereo not shown) [13-191] |  | logP (acid) 1.81
24 | Cc1cc(Cn2nc(C(F)(F)F)cc2C(F)(F)F)ccc1NC(=O)c1c(Cl)cccc1C(=O)NCC#N [13-198] |  | logP (acid) 3.32
25 | CSC[C@H](C)NC(=O)c1c(Cl)cccc1C(=O)Nc1ccc(Cn2nc(C(F)(F)C(F)(F)F)cc2C(=O)C(F)(F)F)cc1C [13-220] |  | logP (acid) 3.52
26 | CSC[C@H](C)NC(=O)c1c(Cl)cccc1C(=O)Nc1ccc(Cn2nc(C(F)(F)F)cc2C(F)(F)F)nc1Cl [13-232] |  | logP (acid) 3.97
27 | CSC[C@H](C)NC(=O)c1c(I)cccc1C(=O)Nc1ccc(Cn2nc(C(F)(F)F)cc2C(F)(F)C(F)(F)F)nc1C [13-239] |  | logP (acid) 4.27
28 | CCC(CC#N)NC(=O)c1c(Cl)cccc1C(=O)Nc1ccc(Cn2nc(C(F)(F)F)cc2C(F)(F)F)cc1C (stereo not shown) [13-277] |  | logP (acid) 3.42

More lines, now with the values ahead:

Row | logP (acid) [1] | logP (acid) [2] | Structure (SMILES)
29 | logP (acid) 2.6 |  | COc1ccc(Br)c(C(=O)Nc2ccc(Cn3nc(C(F)(F)F)cc3C(F)(F)F)nc2C)c1C(=O)N[C@@H](C)C[S+](C)[O-] (stereo partly shown) [11-17]
30 | logP (acid) 4.02 |  | COc1ccc(Br)c(C(=O)Nc2ccc(Cn3nc(C(F)(F)C(F)(F)F)cc3C(F)(F)F)nc2C)c1C(=O)N[C@@H](C)CSC [11-19]
31 | logP (acid) 2.90 |  | COc1ccc(Br)c(C(=O)Nc2ccc(Cn3nc(C(F)(F)C(F)(F)F)cc3C(F)(F)F)nc2C)c1C(=O)N[C@@H](C)C[S+](C)[O-] (stereo partly shown) [11-20]
32 | logP (acid) 3.88 |  | CSC[C@H](C)NC(=O)c1c(Cl)ccc(Cl)c1C(=O)Nc1ccc(Cn2nc(C(F)(F)F)cc2C(F)(F)F)cc1C [11-21]
33 | logP (acid) 4.25 |  | CSC[C@H](C)NC(=O)c1c(Cl)ccc(Cl)c1C(=O)Nc1ccc(Cn2nc(C(F)(F)F)nc2C(F)(F)F)cc1C [11-26]
34 | logP (acid) 4.51 |  | CSC[C@H](C)NC(=O)c1c(Cl)ccc(Cl)c1C(=O)Nc1ccc(Cn2nc(C(F)(F)C(F)(F)F)nc2C(F)(F)F)cc1C [11-27]
35 | logP (acid) 4.28 |  | CSC[C@H](C)NC(=O)c1c(Cl)ccc(Br)c1C(=O)Nc1ccc(Cn2nc(C(F)(F)C(F)(F)F)nc2C(F)(F)F)cc1C [11-30]
36 | logP (acid) 4.14 |  | COc1ccc(Br)c(C(=O)Nc2ccc(Cn3nc(C(F)(F)C(F)(F)F)nc3C(F)(F)F)cc2C)c1C(=O)N[C@@H](C)CSC [11-38]
37 | 3.21 |  | CSC[C@H](C)NC(=O)c1c(Cl)cccc1C(=O)Nc1ccc(Cn2nc(C(F)F)c(Cl)c2C(F)F)nc1C [13-27]
38 | 3.20 |  | CSC[C@H](C)NC(=O)c1c(Cl)cccc1C(=O)Nc1ccc(Cn2nc(C(F)F)c(Br)c2C(F)F)nc1C [13-28]
39 | 2.48 |  | Cc1nc(Cn2nc(C(F)F)c(Cl)c2C(F)F)ccc1NC(=O)c1cccc(Cl)c1C(=O)N[C@@H](C)CS(C)(=O)=O [13-76]
40 | logP (acid) 3.28 |  | CSC[C@H](C)NC(=O)c1c(Br)cccc1C(=O)Nc1ccc(Cn2nc(C(F)F)c(Cl)c2C(F)F)nc1C [13-126]
41 | logP (acid) 3.34 |  | CSC[C@H](C)NC(=O)c1c(I)cccc1C(=O)Nc1ccc(Cn2nc(C(F)F)c(Cl)c2C(F)F)nc1C [13-145]
42 |  | logP (acid) 2.31 | CSC[C@H](C)NC(=O)c1c(Cl)cccc1C(=O)Nc1ccc(Cn2nc(C(F)(F)F)cc2N)cc1C [13-200]
43 |  | logP (acid) 3.43 | CCOC(=O)c1cn(Cc2ccc(NC(=O)c3cccc(Cl)c3C(=O)N[C@@H](C)CSC)c(C)c2)nc1C(F)(F)F [13-202]
44 |  | logP (acid) 4.46 | CSC[C@H](C)NC(=O)c1c(Cl)cccc1C(=O)Nc1ccc(Cn2cc(C(=O)C(F)(F)C(F)(F)F)c(C(F)(F)C(F)(F)F)n2)cc1C [13-205]
45 |  | logP (acid) 2.56 | CSC[C@H](C)NC(=O)c1c(Cl)cccc1C(=O)Nc1ccc(Cn2cc(C(=O)N(C)C)c(C(F)(F)F)n2)cc1C [13-207]
46 |  | logP (acid) 3.25 | CSC[C@H](C)NC(=O)c1c(Cl)cccc1C(=O)Nc1ccc(Cn2cc(C(=O)NC(C)C(F)(F)F)c(C(F)(F)F)n2)cc1C (stereo partly shown) [13-208]
47 |  | logP (acid) 2.87 | CSC[C@H](C)NC(=O)c1c(Cl)cccc1C(=O)Nc1ccc(Cn2cc(C(=O)NC(C)C)c(C(F)(F)F)n2)cc1C [13-209]
48 |  | logP (acid) 3.05 | CSC[C@H](C)NC(=O)c1c(Cl)cccc1C(=O)Nc1ccc(Cn2cc(C(=O)NCC(F)(F)F)c(C(F)(F)F)n2)cc1C [13-210]
49 |  | logP (acid) 4.55 | CSC[C@H](C)NC(=O)c1c(Cl)cccc1C(=O)Nc1ccc(Cn2cc(C(=O)Nc3cc(C(F)(F)F)cc(C(F)(F)F)c3)c(C(F)(F)F)n2)cc1C [13-211]
50 |  | logP (acid) 3.64 | CSC[C@H](C)NC(=O)c1c(Cl)cccc1C(=O)Nc1ccc(Nc2c(C(F)(F)F)c(C(F)(F)C(F)(F)F)nn2C)nc1C [13-226]
51 |  | logP (acid) 5.09 | CSC[C@H](C)NC(=O)c1c(Cl)cccc1C(=O)Nc1ccc(Nc2c(SC(F)(F)F)c(C(F)(F)F)nn2-c2c(Cl)cc(C(F)(F)F)cc2Cl)nc1C [13-227]
52 |  | logP (acid) 2.98 | CSC[C@H](C)NC(=O)c1c(Cl)cccc1C(=O)Nc1ccc(Oc2cc(C(F)(F)F)n(C)n2)nc1C [13-228]
53 |  | logP (acid) 3.4 | CSC[C@H](C)NC(=O)c1c(Cl)cccc1C(=O)Nc1ccc(C(=O)c2cc(C(F)(F)C(F)(F)F)n[nH]2)cc1C [13-229]
54 |  | logP (acid) 3.29 | CSC[C@H](C)NC(=O)c1c(Cl)cccc1C(=O)Nc1ccc(Cc2cc(C(F)(F)C(F)(F)F)n[nH]2)cc1C [13-230]
55 |  | logP (acid) 3.74 | CSC[C@H](C)NC(=O)c1cc(Cl)c(Cl)cc1C(=O)Nc1ccc(Cn2nc(C(F)(F)F)cc2C(F)(F)F)nc1C [13-238]
56 |  | logP (acid) 3.28 | Cc1nc(Cn2nc(C(F)(F)F)cc2C(F)(F)F)ccc1NC(=O)c1c(Cl)cccc1C(=O)NC1CCS(=O)(=O)C1 (stereo not shown) [13-276]
57 |  | logP (acid) 4.41 | Cc1nc(Cn2nc(C(F)(F)F)cc2C(F)(F)F)ccc1NC(=O)c1c(Cl)cccc1C(=O)NC1=NN(c2ccccc2)C(=O)C1 [13-281]
58 |  | logP (acid) 2.4 | Cc1nc(Cn2nc(C(F)(F)F)cc2C(F)(F)F)ccc1NC(=O)c1c(Cl)cccc1C(=O)NC(C)CN(C)C (stereo not shown) [13-283]
